Test results: US20230263863A1, “COMPOSITIONS HAVING NEUROREGENERATIVE APPLICATIONS” (GRIFOLS WORLDWIDE OPERATIONS LIMITED, priority 2020, published 2023)
Counter-ions that a name gives are not always drawn.

Columns and labels:
[1] = Iron saturation of transferrin samples by ICP-AES; format: physicochemical
Protocol: Protein purity was determined by SDS-PAGE. Iron saturation levels were determined using ICP-AES in accordance with the procedures outlined in Manley et al., J Biol Inorg Chem (2009) 14:61-74, the contents of which are incorporated herein by reference.

SH-SY5Y cells [2] = test: Cell number / proliferation of SH-SY5Y cells; format: cell-based, human
Protocol: Undifferentiated SH-SY5Y cells were seeded into 96 well clear bottom plates in media containing 0.1% FBS. A serum-free base media was utilized as recommended by the supplier for SH-SY5Y cells (Sigma, Cat #94030304-1VL). Twenty-four hours after seeding cells, a 3× stock solution of ApoTf, final concentrations indicated on the x-axis, in serum free base media was added to the cells. […] Cells were allowed to differentiate for 6 days. Neurite growth was assessed by imaging and image analysis. At the time of analysis, a 10× solution of Tubulin Tracker (Molecular Probes, T34075) and Hoechst 33342 (Molecular Probes #H3570) nuclear stain was prepared.
Briefly, Tubulin Tracker dissolved in DMSO was diluted 1:1 with Pluronic F-127 and further diluted into HBSS to generate a 10× solution. Hoechst 33342 was added to the HBSS-Tubulin Tracker solution at 10 μg/mL to generate a 10× nuclear stain. The 10× staining solution (10 μL) was added directly to treated assay wells and incubated at 37° C. for 30 minutes. […]
After obtaining images, the MetaExpress Neurite Outgrowth analysis module (Molecular Devices) was used to identify cells, cell bodies, and quantify neurites. […] The Outgrowth Fold Change was determined by setting the untreated control cells to a value of 1 with all other treatments shown relative to untreated control.

[3] = tested on: MPTP-induced Parkinson's Disease in mice; test: Kinematic gait analysis in MPTP-induced Parkinson's Disease mice; format: in vivo, C57BI/6J mice; conditions: ApoTf 350 mg/kg i.p. once a day, days 1-7; analysis on day 7; n=15
Protocol: Animal experiments were performed at Charles River Laboratories (Finland), as specified in the license authorized by the national Animal Experiment Board of Finland and according to the National Institutes of Health (Bethesda, Md., USA) guidelines for the care and use of laboratory animals. Eight to twelve-week-old, C57BI/6J mice were housed at a standard temperature (22±1° C.) and in a light-controlled environment (lights on from 7 am to 8 pm) with ad libitum access to food and water.
Solutions of MPTP were prepared by dissolving MPTP hydrochloride in sterile saline at 2.42 mg/mL; corresponding to 2.0 mg/mL of active compound. To induce Parkinson's Disease, the MPTP was given by intraperitoneal injection twice a day at 20 mg/kg. […]
The captured videos of each mouse were first converted to the software-readable format. […] Gait pattern and movement analysis assessed 100 different parameters, including but not limited to stride time, swing time during a stride, speed, step width, stance and interlimb coordination. The data was analysed by using principal component analysis (PCA). The overall gait analysis was based on the PCA of all parameters for each mouse, with the obtained value showing the overall differences, measured as a “distance”, between control mice and MPTP, or MPTP plus ApoTf mice. […]

[4] = tested on: primary human brain cortex-derived neural progenitor cells; test: Differentiation of primary human neural progenitor cells to neurons and astrocytes; format: cell-based; conditions: ApoTf 0.8 mg/mL, 72 hours
Protocol: Neural progenitor cells maintained as neurospheres were obtained from Lonza (PT-2599). Cells were thawed from a frozen vial of neurospheres and cultured in Human NeuroCult™ NS-A Complete Proliferation media (Stemcell Technologies) for 2 weeks. Neurospheres were dissociated to single cells and plated in Laminin coated wells of assay plates. The neural progenitor cells were seeded in NeuroCult™ NS-A Basal media containing 1/10th concentration of the recommended proliferation supplements, in the absence or presence of ApoTf (0.8 mg/mL) for 72 hours. At the time of analysis, cells were fixed with paraformaldehyde, stained for β-III-tubulin (R&D Systems, MAB1195) and GFAP (Invitrogen, PA3-16727), and imaged on a Molecular Devices Nano imaging instrument. Image analysis was performed by assessing the relative numbers of cells staining positive for β-III-tubulin or GFAP. Values for the indicated conditions are shown with standard deviations as “% β-III-Tubulin Positive” cells (FIG. 2A) or “% GFAP Positive” cells (FIG. 2B).

SH-SY5Y cells [5] = test: β-III-tubulin staining intensity in SH-SY5Y cells; format: cell-based, human; conditions: FIG. 1D
Protocol: In this experiment, the SH-SY5Y cells were differentiated as described supra. At the time of analysis, cells were fixed with paraformaldehyde, stained for β-III-tubulin (R&D Systems, MAB1195), and imaged on a Molecular Devices Nano imaging instrument. Image analysis was performed by assessing the fluorescent intensity of cells stained with β-III-tubulin. Background from secondary antibody alone was subtracted from all values. Values are shown with standard deviations as “β-III-Tubulin Staining Intensity” for the indicated conditions.

SH-SY5Y cells [6] = test: Neurite outgrowth (Outgrowth Fold Change) in undifferentiated SH-SY5Y cells; format: cell-based, human; conditions: for neurite outgrowth / differentiation over the concentration range: DFO compared with ApoTf; for neurogenesis / differentiation (neurite outgrowth): all proteins 0.2 mg/mL; for neurite outgrowth or differentiation: FIG. 5
Protocol: Undifferentiated SH-SY5Y cells were seeded into 96 well clear bottom plates in media containing 0.1% FBS. A serum-free base media was utilized as recommended by the supplier for SH-SY5Y cells (Sigma, Cat #94030304-1VL). Twenty-four hours after seeding cells, a 3× stock solution of ApoTf, final concentrations indicated on the x-axis, in serum free base media was added to the cells. ApoTf was obtained and purified from pooled human plasma and dosed at a final concentration of 0.2 mg/mL. Cells were allowed to differentiate for 6 days. Neurite growth was assessed by imaging and image analysis. At the time of analysis, a 10× solution of Tubulin Tracker (Molecular Probes, T34075) and Hoechst 33342 (Molecular Probes #H3570) nuclear stain was prepared.
Briefly, Tubulin Tracker dissolved in DMSO was diluted 1:1 with Pluronic F-127 and further diluted into HBSS to generate a 10× solution. Hoechst 33342 was added to the HBSS-Tubulin Tracker solution at 10 μg/mL to generate a 10× nuclear stain. The 10× staining solution (10 μL) was added directly to treated assay wells and incubated at 37° C. for 30 minutes. Following incubation, 110 μL of 0.4% Trypan Blue was added directly to assay wells and imaged on a Molecular Devices Nano imaging instrument. Nine images/well were acquired in the blue (Nuclei) and green (Tubulin) fluorescent channels for each image.
After obtaining images, the MetaExpress Neurite Outgrowth analysis module (Molecular Devices) was used to identify cells, cell bodies, and quantify neurites. The total number of neurite branches were divided by the total number of cells imaged to account for different numbers of cells in each test well. The Outgrowth Fold Change was determined by setting the untreated control cells to a value of 1 with all other treatments shown relative to untreated control.

HIF-1α = conditions: undifferentiated SH-SY5Y; US2016008437; cited from earlier work
[7] = FIG. 1C, 0.1 mg/mL ApoTf vs untreated control

In the case of “ApoTransferrin C: apo-transferrin sample, Grifols, prepared in house”, the “Iron Saturation (%)” value [1] is reported as 0.24%.

In the case of “ApoTf: iron-free form of transferrin protein, purified from pooled human plasma”, the “cell numbers (cell proliferation)” value (SH-SY5Y cells [2]; FIG. 1B, up to 0.8 mg/mL apo-transferrin) is reported as “concentration dependent increase in cell numbers”, the “cell proliferation (nuclear staining)” value (SH-SY5Y cells [2]; [7]) is reported as “profound effect on promoting cell proliferation” and the “movement and gait (Distance from Control, PCA)” value [3] is reported as “significantly ameliorated”. The “Iron Saturation (%)” value [1] was < 0.3%, the “% β-III-tubulin positive cells (neurons)” value ([4]; FIG. 2A) was “dramatically increases the percentage of cells differentiated to neurons” and the “% GFAP positive cells (astrocytes)” value ([4]; FIG. 2B) was “dramatically increases”. The “β-III-Tubulin Staining Intensity” value (SH-SY5Y cells [5]) was “caused an increase in β-III-tubulin protein”, the neurite outgrowth (SH-SY5Y cells [6]; FIG. 1A, ApoTf up to 0.8 mg/mL, 6 days) was “induce neurite outgrowth in a dose dependent manner” and the “neurite/tubulin outgrowth (tubulin staining)” value (SH-SY5Y cells [6]; [7]) was “promoting induction of neurite/tubulin outgrowth”. For the same molecule, the “neurite outgrowth / differentiation over the concentration range” value (SH-SY5Y cells [6]; FIG. 3A) was “continues to increase differentiation even up to 9.9 μM”, the “neurogenesis / differentiation (neurite outgrowth)” value (shortened to “neurogenesis / differentiation”) (SH-SY5Y cells [6]; FIG. 3B) was “did induce neurogenesis” and the “differentiation (neurite outgrowth), factor combined with ApoTf” value (SH-SY5Y cells [6]; FIGS. 7A-7D, ApoTf 0.1 mg/mL plus neurotrophic factor) was “synergistic effect with other neurotrophic factors and peptides”.

In the case of “ApoTransferrin B: apo-transferrin sample, Grifols, prepared in house”, the “Iron Saturation (%)” value [1] is reported as 0.59%.

With `C[C@@H](N)[C@H]1CC[C@H](C(=O)Nc2ccncc2)CC1.Cl.Cl` [Y-27632, trans-4-[(1R)-1-Aminoethyl]-N-4-pyridinylcyclohexanecarboxamide dihydrochloride, reference compound] the “neurogenic effect (neurite outgrowth), alone” value (SH-SY5Y cells [6]; FIG. 8, Y-27632 50 μM) was “strongly neurogenic” and the “neurogenic effect (neurite outgrowth), in the presence of ApoTf” value (SH-SY5Y cells [6]; FIG. 8, Y-27632 50 μM plus ApoTf 0.1 mg/mL) was “synergistic showing an effect beyond that exhibited by either molecule alone”.

In the case of “ApoTransferrin A: apo-transferrin sample, Grifols, prepared in house”, the “Iron Saturation (%)” value [1] is reported as 0.27%.

With `CC(=O)N(O)CCCCCNC(=O)CCC(=O)N(O)CCCCCNC(=O)CCC(=O)N(O)CCCCCN` [DFO, Deferoxamine mesylate, reference compound] the “concentration of maximal neurite outgrowth” value (SH-SY5Y cells [6]; FIG. 3A) was 1 to 3 µM and the “neurite outgrowth / differentiation over the concentration range” value (SH-SY5Y cells [6]; FIG. 3A) was “little neurite formation beyond that concentration”.

In the case of `O=C(O)CNC(=O)c1c(O)c2ccccc2n(Cc2ccccc2)c1=O` [IOX2, N-[[1,2-Dihydro-4-hydroxy-2-oxo-1-(phenylmethyl)-3-quinolinyl]carbonyl]-glycine, reference compound], the “concentration inducing up-regulation of HIF-1α” value (HIF-1α) is listed as 1 µM, the “neurite outgrowth or differentiation” value (SH-SY5Y cells [6]; 4 μM IOX2) is listed as “no effect was observable” and the “neurite outgrowth or differentiation” value (SH-SY5Y cells [6]; IOX2-treated cells) is listed as “no neurite outgrowth or differentiation was observed”.

In the case of “HoloTf: iron-saturated form of transferrin, purified from pooled human plasma [reference compound]”, the “Iron Saturation (%)” value [1] is reported as 100% and the “neurogenesis / differentiation” value (SH-SY5Y cells [6]; FIG. 4) is reported as “unable to induce differentiation”.

With “recombinant ApoTf: recombinant wild-type human transferrin, SEQ ID NO: 1, expressed in 293-6E cells” the “neurogenesis / differentiation” value (SH-SY5Y cells [6]; FIG. 3B) was “did induce neurogenesis”.
